The values that follow come from patent US20240142676A1, “COMPOUND, COMPOSITION, CURED PRODUCT, OPTICALLY ANISOTROPIC BODY, OPTICAL ELEMENT, AND LIGHT GUIDE ELEMENT” (FUJIFILM Corporation, priority 2021, published 2024).

What all share (assay type): physicochemical
Data set [1] can be described thus: Measurement of Δn (refractive index anisotropy), wedge-shaped liquid crystal cell. Particulars: wavelength 550 nm, 30° C. or lower limit temperature of nematic phase+0° C. to 10° C.; extrapolated from 1/2 mixture with L-1-1 where needed. As for the experimental part: The Δn of each of the compounds (the compounds A-1 to A-6 and the compounds B-1 and B-2), which are the compounds to be measured, was measured by a method using a wedge-shaped liquid crystal cell described on page 202 in the Liquid crystal handbook (edited by the liquid crystal handbook editorial board, published by Maruzen Co., Ltd., 2000). Δn was defined as a measured value at a wavelength of 550 nm at 30° C. or the lower limit temperature of the nematic phase+0° C. to 10° C. In a case of a compound which is liable to crystallize or a compound having no liquid crystallinity, evaluation was carried out using a mixture thereof with the other liquid crystal compound, and Δn was estimated from the extrapolated value of the measured value thereof.
The following L-1-1 was used as the other liquid crystal compound. As the above mixture, a mixture obtained by mixing at a ratio of the compound to be measured/the L-1-1=1/2 (in terms of mass ratio) was used.
A case where Δn was 0.35 or more was evaluated as A, a case where Δn was 0.30 or more and less than 0.35 was evaluated as B, and a case where Δn was less than 0.30 was evaluated as C.

The nature of data set [2]: Evaluation of liquid crystallinity (hot stage, polarization microscope). Also on record: key: A case of having liquid crystallinity was evaluated as A; a case of having no liquid crystallinity was evaluated as B. The note with it: heated on a hot stage, observed with a polarization microscope. As for the experimental part:
The respective compounds (the compounds A-1 to A-6 and the compounds B-1 and B-2) were heated on a hot stage and observed with a polarization microscope, and the phase transition temperature was measured to evaluate the presence or absence of the liquid crystallinity. A case of having liquid crystallinity was evaluated as A, and a case of having no liquid crystallinity was evaluated as B. The results are shown in Table 1.
Since B-1 has melting points of 200° C. or higher and undergo a polymerization reaction during heating, liquid crystallinity could not be evaluated.

Data set [3] can be described thus: Evaluation of solubility in methyl ethyl ketone. Particulars: precipitation concentration in methyl ethyl ketone at room temperature (25° C.). As for the experimental part: The solubility of each of the compounds (the compounds A-1 to A-6 and the compounds B-1 and B-2) in methyl ethyl ketone was evaluated.
Data set [4] is described as follows: Light resistance evaluation of optically anisotropic layer (Super Xenon Weather Meter). The note with it: rate of change in Re (550 nm) of layer with 25 parts compound/75 parts L-1; 5 million lx, 50 hours, 63° C., 50% RH, oxygen-blocking. The procedure: As shown below, the light resistance of the optically anisotropic layer produced using the composition containing each of the compounds A-1 to A-6 and the compounds B-1 and B-2 was evaluated.
A coating liquid having the following composition was prepared and applied by spin-coating, onto a rubbing-treated glass attached with an alignment film. Each composition was irradiated with ultraviolet rays of 300 mJ/cm^2 through a filter that cuts light having a wavelength of 350 nm or less on a hot plate which had been heated to a temperature at which a nematic phase is shown, whereby an optically anisotropic layer was produced.
The polymerizable liquid crystal compound L-1 is a mixture obtained by mixing at a ratio of the following L-1-1/L-1-2/L-1-3=84/14/2 (in terms of mass ratio).
The produced optically anisotropic layers for a light resistance test were irradiated with light using a Super Xenon Weather Meter SX75 manufactured by Suga Test Instruments Co., Ltd. Using KU-1000100 manufactured by King Seisakusho Co., Ltd. as a UV cut filter, a light resistance test was carried out by irradiation with 5 million lx of light for 50 hours under an oxygen-blocking condition. The temperature of the specimen to be tested (the temperature inside the test device) was set to 63° C. The relative humidity in the test device was 50% RH.
The Re of the optically anisotropic layer before and after the light resistance test was measured, the light resistance in a case where the rate of change in Re described below was less than 10% was evaluated as A, and the light resistance in a case where the rate of change in Re was 10% or more was evaluated as B. The smaller the rate of change in Re, the more excellent the light resistance.
Rate of change in Re (%)=[100×{|(Re after test)−(Re before test)|}/(Re before test)]
Re was measured with Axoscan manufactured by Axometrics Inc. at a wavelength of 550 nm, and the measurement temperature was set to room temperature.

Consider `C=CC(=O)OCCc1ccc(C#Cc2ccc(-c3ccc(C#Cc4ccc(CCOC(=O)C=C)cc4)cc3C)c(C)c2)cc1` [Compound A-1], for which the Δn entry in data set [1] was “B (a case where Δn was 0.30 or more and less than 0.35 was evaluated as B)”. In data set [2], the Liquid crystallinity result is given as “A”. The Solubility entry in data set [3] is reported as “A (the solubility in a case where the precipitation concentration was 10% by mass or more was evaluated as A)”. Besides, the Light resistance result in data set [4] was “A (the light resistance in a case where the rate of change in Re described below was less than 10% was evaluated as A)”.

In the case of `C=CC(=O)OCCc1ccc(C#Cc2cnc(-c3ncc(C#Cc4ccc(CCOC(=O)C=C)cc4)cc3C)c(C)c2)cc1` [Compound A-6], the Δn result in data set [1] was “B (a case where Δn was 0.30 or more and less than 0.35 was evaluated as B)”. Besides, the Liquid crystallinity result in data set [2] is on record as “A”. For the same compound, the Solubility result in data set [3] is “A (the solubility in a case where the precipitation concentration was 10% by mass or more was evaluated as A)”. Besides, the Light resistance result in data set [4] is “A (the light resistance in a case where the rate of change in Re described below was less than 10% was evaluated as A)”.

In the case of `C=CC(=O)OCCCCOc1ccc(C#Cc2ccc(-c3ccc(C#Cc4ccc(OCCCCOC(=O)C=C)cc4)cc3C)c(C)c2)cc1` [Compound A-3], the Δn entry in data set [1] is “B (a case where Δn was 0.30 or more and less than 0.35 was evaluated as B)”. In addition, in data set [2], the Liquid crystallinity result is “A”. The Solubility entry in data set [3] is “A (the solubility in a case where the precipitation concentration was 10% by mass or more was evaluated as A)”. Further, the Light resistance result in data set [4] is on record as “A (the light resistance in a case where the rate of change in Re described below was less than 10% was evaluated as A)”.

For `C=CC(=O)OCCSc1ccc(C#Cc2ccc(-c3ccc(C#Cc4ccc(SCCOC(=O)C=C)cc4)cc3C)c(C)c2)cc1` [Compound A-2], the Δn entry in data set [1] was “A (A case where Δn was 0.35 or more was evaluated as A)”. Further, the Liquid crystallinity result in data set [2] is “A”. The Solubility result in data set [3] is “A (the solubility in a case where the precipitation concentration was 10% by mass or more was evaluated as A)”. Also, the Light resistance entry in data set [4] was “A (the light resistance in a case where the rate of change in Re described below was less than 10% was evaluated as A)”.
